The text below walks through data of ChEMBL document CHEMBL1156854, “Design and synthesis of piperazine-indole p38 alpha MAP kinase inhibitors with improved pharmacokinetic profiles” (Bioorg Med Chem Lett, 2010).

The nature of data set [1]: Oral bioavailability in dog. The data set is classed as ADME, organism-based, Canis lupus familiaris. As to conditions: in vivo.
Data set [2] can be described thus: Metabolic stability in monkey liver microsomes assessed as parent compound level. The data set is classed as ADME, Macaca mulatta, Microsome. As to conditions: rhesus monkey. In general terms: Liver microsomes are vesicles of endoplasmic reticulum, rich in cytochrome P450 enzymes.
Data set [3] can be described thus: Tmax in rat. It counts as ADME, organism-based. The following applies: in vivo.
The nature of data set [4]: Oral bioavailability in rat. The following applies: in vivo. It counts as ADME, organism-based.
Data set [5] in a line: Metabolic stability in dog liver microsomes assessed as parent compound level. The data set is classed as ADME, Canis lupus familiaris, Microsome.
Data set [6] is described as follows: Metabolic stability in monkey liver microsomes assessed as demethylated metabolite level. The data set is classed as ADME, Macaca mulatta, Microsome. The following applies: rhesus monkey.
The nature of data set [7]: Tmax in monkey. The data set is classed as ADME, organism-based, Macaca mulatta. The following applies: rhesus monkey, in vivo.
Data set [8] can be described thus: AUC in iv dosed dog. The data set is classed as ADME, organism-based, Canis lupus familiaris. The following applies: plasma.
Data set [9] can be described thus: AUC in po dosed dog. The data set is classed as ADME, organism-based, Canis lupus familiaris. The following applies: plasma.
The nature of data set [10]: Cmax in dog. As to conditions: in vivo. It counts as ADME, organism-based, Canis lupus familiaris.
The nature of data set [11]: Cmax in rat. It counts as ADME, organism-based. As to conditions: in vivo.
In data set [12] the test system is Liver microsomes. As to the kind of experiment: Metabolic stability in rat liver microsomes assessed as parent compound level. It counts as ADME, Microsome.
The nature of data set [13]: AUC in po dosed rat. As to conditions: plasma. The data set is classed as ADME, organism-based.
Data set [14] can be described thus: Clearance in po dosed rat. It counts as ADME, organism-based. The following applies: in vivo.
The test system of data set [15] is Liver microsomes. As to the kind of experiment: Metabolic stability in rat liver microsomes assessed as demethylated metabolite level. It counts as ADME, Microsome.
Data set [16] in a line: Cmax in monkey. The following applies: rhesus monkey, in vivo. It counts as ADME, organism-based, Macaca mulatta.
A short description of data set [17]: AUC in po dosed monkey. It counts as ADME, organism-based, Macaca mulatta. The following applies: rhesus monkey, plasma.
Data set [18] has as its system Liver microsomes. The data set is described as follows: Metabolic stability in human liver microsomes assessed as parent compound level. The data set is classed as ADME, Microsome.
Data set [19] can be described thus: AUC in iv dosed rat. The data set is classed as ADME, organism-based. The following applies: plasma.
Data set [20] has as its system Canis familiaris. As to the kind of experiment: Volume of distribution in po dosed dog. As to conditions: in vivo. The data set is classed as ADME, organism-based, Canis lupus familiaris.
The nature of data set [21]: Clearance in po dosed dog. It counts as ADME, organism-based, Canis lupus familiaris. The following applies: in vivo.
Data set [22] can be described thus: Tmax in dog. The following applies: in vivo. It counts as ADME, organism-based, Canis lupus familiaris.
Data set [23] concerns Rattus norvegicus. As to the kind of experiment: Volume of distribution in po dosed rat. It counts as ADME, organism-based. The following applies: in vivo.
The nature of data set [24]: Oral bioavailability in monkey. It counts as ADME, organism-based, Macaca mulatta. The following applies: rhesus monkey, in vivo.

Usually bioavailability stands for the share of a dose that reaches the circulation, judged against a reference dose that is usually intravenous. By Tmax is commonly meant the time at which the peak concentration occurs. The AUC is the area under the concentration-time curve, a measure of exposure. In general, Cmax refers to the highest concentration seen after dosing. For orientation: CL/F means clearance divided by bioavailability, as obtained after extravascular dosing.

Regarding `C[C@@H]1CN(C(c2ccccc2)c2ccccc2)[C@@H](C)CN1C(=O)c1cc2c(C(=O)C(=O)N(C)C)cn(C)c2cc1Cl`, the bioavailability worked out at 33% in data set [1] and 31% in data set [4]. In addition, the Stability was found to be 71.4% in data set [2]; 91.7% in [5]; 19.5% in data set [6]; 83.9% in data set [12]; 9.4% in [15]; 90.8% in data set [18]. Moreover, the Tmax in [3] was 1.2 h; in data set [7], 2 h; in data set [22] it was 1.3 h. For the same compound, the AUC in data set [8] was 3430 ng·h/mL; in data set [9], 5610 ng·h/mL; in data set [13], 1270 ng·h/mL; in data set [17] it was 1830 ng·h/mL; in [19] it was 810 ng·h/mL. Besides, the Cmax in data set [10] was found to be 899 ng/mL; in [11], 367 ng/mL; in data set [16], 360 ng/mL. The CL/F in data set [14] is 20 mL/min/kg; in [21] it was 3.33 mL/min/kg. Besides, the Vd is 6.5 L/kg in data set [20] and 2.7 L/kg in data set [23].
With `C[C@@H]1CN(Cc2ccc(F)cc2)[C@@H](C)CN1C(=O)c1cc2c(C(=O)C(=O)N(C)C)cn(C)c2cc1Cl` [TALMAPIMOD], the bioavailability is 69% in data set [1] and 12% in [24]. The Stability in [2] was found to be 51.2%; in data set [5], 94.5%; in [6] it was 11.9%; in [12], 65.8%; in data set [15], 3.2%; in [18], 65.1%.
